Test results published in paper PMC6874179, “Development of Macrocycle Kinase Inhibitors for ALK2 Using Fibrodysplasia Ossificans Progressiva‐Derived Endothelial Cells” (JBMR Plus, 2019).

What was measured:
Assay in all cases: Proqinase Kinase profiling
Type in all cases: biochemical
Conditions in all cases: read-out: % inhibition at 100nM
LIMK1 = target: T1, LIMK1 (Homo sapiens, UniProt P53667)
T1 construct: purchased DiscoverX

MAP3K5 = target: T2, MAP3K5 (Homo sapiens, UniProt Q99683)
T2 construct: purchased DiscoverX

PRKCG = target: T3, PRKCG (Homo sapiens, UniProt P05129)
T3 construct: purchased DiscoverX

DAPK2 = target: T4, DAPK2 (Homo sapiens, UniProt Q9UIK4)
T4 construct: purchased DiscoverX

MET_Y1230D = target: T5, MET_Y1230D (Homo sapiens, UniProt P08581, Y1230D)
T5 construct: purchased DiscoverX

MAP3K7 = target: T6, MAP3K7 (Homo sapiens, UniProt O43318)
T6 construct: purchased DiscoverX

MAPKAPK2 = target: T7, MAPKAPK2 (Homo sapiens, UniProt P49137)
T7 construct: purchased DiscoverX

MERTK = target: T8, MERTK (Homo sapiens, UniProt Q12866)
T8 construct: purchased DiscoverX

EGFR_G719S = target: T9, EGFR_G719S (Homo sapiens, UniProt P00533, G719S)
T9 construct: purchased DiscoverX

RPS6KA3 = target: T10, RPS6KA3 (Homo sapiens, UniProt P51812)
T10 construct: purchased DiscoverX

PRKACA = target: T11, PRKACA (Homo sapiens, UniProt P17612)
T11 construct: purchased DiscoverX

PKN2 = target: T12, PKN2 (Homo sapiens, UniProt Q16513)
T12 construct: purchased DiscoverX

FGFR3_K650E = target: T13, FGFR3_K650E (Homo sapiens, UniProt P22607, K650E)
T13 construct: purchased DiscoverX

AKT1 = target: T14, AKT1 (Homo sapiens, UniProt P31749)
T14 construct: purchased DiscoverX

ABL1_G250E = target: T15, ABL1_G250E (Homo sapiens, UniProt P00519, G250E)
T15 construct: purchased DiscoverX

ADRBK2 = target: T16, ADRBK2 (Homo sapiens, UniProt P35626)
T16 construct: purchased DiscoverX

PASK = target: T17, PASK (Homo sapiens, UniProt Q96RG2)
T17 construct: purchased DiscoverX

PRKG2 = target: T18, PRKG2 (Homo sapiens, UniProt Q13237)
T18 construct: purchased DiscoverX

DSTYK = target: T19, DSTYK (Homo sapiens, UniProt Q6XUX3)
T19 construct: purchased DiscoverX

GSG2 = target: T20, GSG2 (Homo sapiens, UniProt Q8TF76)
T20 construct: purchased DiscoverX

ABL1_F317I = target: T21, ABL1_F317I (Homo sapiens, UniProt P00519, F317I)
T21 construct: purchased DiscoverX

NEK4 = target: T22, NEK4 (Homo sapiens, UniProt P51957)
T22 construct: purchased DiscoverX

NEK9 = target: T23, NEK9 (Homo sapiens, UniProt Q8TD19)
T23 construct: purchased DiscoverX

CDK4_cyclinD3 = target: T24, CDK4_cyclinD3 (Homo sapiens, UniProt P11802)
T24 construct: purchased DiscoverX

MET = target: T25, MET (Homo sapiens, UniProt P08581)
T25 construct: purchased DiscoverX

FER = target: T26, FER (Homo sapiens, UniProt P16591)
T26 construct: purchased DiscoverX

SRPK2 = target: T27, SRPK2 (Homo sapiens, UniProt P78362)
T27 construct: purchased DiscoverX

ALK_F1174L = target: T28, ALK_F1174L (Homo sapiens, UniProt Q9UM73, F1174L)
T28 construct: purchased DiscoverX

KIT_V654A = target: T29, KIT_V654A (Homo sapiens, UniProt P10721, V654A)
T29 construct: purchased DiscoverX

GRK7 = target: T30, GRK7 (Homo sapiens, UniProt Q8WTQ7)
T30 construct: purchased DiscoverX

CAMKK1 = target: T31, CAMKK1 (Homo sapiens, UniProt Q8N5S9)
T31 construct: purchased DiscoverX

TTK = target: T32, TTK (Homo sapiens, UniProt P33981)
T32 construct: purchased DiscoverX

STK24 = target: T33, STK24 (Homo sapiens, UniProt Q9Y6E0)
T33 construct: purchased DiscoverX

ALK_L1196M = target: T34, ALK_L1196M (Homo sapiens, UniProt Q9UM73, L1196M)
T34 construct: purchased DiscoverX

NEK2 = target: T35, NEK2 (Homo sapiens, UniProt P51955)
T35 construct: purchased DiscoverX

KIT_V559D_V654A = target: T36, KIT_V559D_V654A (Homo sapiens, UniProt P10721, V559D/V654A)
T36 construct: purchased DiscoverX

PTK2B = target: T37, PTK2B (Homo sapiens, UniProt Q14289)
T37 construct: purchased DiscoverX

MET_Y1230H = target: T38, MET_Y1230H (Homo sapiens, UniProt P08581, Y1230H)
T38 construct: purchased DiscoverX

NEK1 = target: T39, NEK1 (Homo sapiens, UniProt Q96PY6)
T39 construct: purchased DiscoverX

STK16 = target: T40, STK16 (Homo sapiens, UniProt O75716)
T40 construct: purchased DiscoverX

RET_M918T = target: T41, RET_M918T (Homo sapiens, UniProt P07949, M918T)
T41 construct: purchased DiscoverX

MET_M1250T = target: T42, MET_M1250T (Homo sapiens, UniProt P08581, M1250T)
T42 construct: purchased DiscoverX

T27 sequence (P78362 whole entry): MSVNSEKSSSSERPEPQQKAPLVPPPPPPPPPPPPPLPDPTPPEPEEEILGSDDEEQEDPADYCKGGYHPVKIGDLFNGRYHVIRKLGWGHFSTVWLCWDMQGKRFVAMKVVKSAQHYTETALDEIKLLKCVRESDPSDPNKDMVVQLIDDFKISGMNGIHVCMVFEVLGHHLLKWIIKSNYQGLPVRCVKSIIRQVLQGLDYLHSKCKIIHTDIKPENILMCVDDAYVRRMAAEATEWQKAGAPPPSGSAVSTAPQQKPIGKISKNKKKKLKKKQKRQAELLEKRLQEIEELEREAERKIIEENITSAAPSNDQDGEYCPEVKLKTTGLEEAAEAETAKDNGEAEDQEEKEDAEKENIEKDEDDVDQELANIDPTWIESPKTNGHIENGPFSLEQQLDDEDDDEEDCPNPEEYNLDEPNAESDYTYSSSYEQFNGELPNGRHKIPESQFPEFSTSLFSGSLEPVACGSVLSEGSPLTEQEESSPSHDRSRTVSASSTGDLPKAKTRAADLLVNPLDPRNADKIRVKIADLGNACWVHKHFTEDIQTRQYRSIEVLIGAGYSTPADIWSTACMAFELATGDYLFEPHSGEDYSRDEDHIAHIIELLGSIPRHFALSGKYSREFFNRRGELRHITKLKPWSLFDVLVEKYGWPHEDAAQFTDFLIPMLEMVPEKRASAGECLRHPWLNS
T29 sequence (P10721 26-976 V654A): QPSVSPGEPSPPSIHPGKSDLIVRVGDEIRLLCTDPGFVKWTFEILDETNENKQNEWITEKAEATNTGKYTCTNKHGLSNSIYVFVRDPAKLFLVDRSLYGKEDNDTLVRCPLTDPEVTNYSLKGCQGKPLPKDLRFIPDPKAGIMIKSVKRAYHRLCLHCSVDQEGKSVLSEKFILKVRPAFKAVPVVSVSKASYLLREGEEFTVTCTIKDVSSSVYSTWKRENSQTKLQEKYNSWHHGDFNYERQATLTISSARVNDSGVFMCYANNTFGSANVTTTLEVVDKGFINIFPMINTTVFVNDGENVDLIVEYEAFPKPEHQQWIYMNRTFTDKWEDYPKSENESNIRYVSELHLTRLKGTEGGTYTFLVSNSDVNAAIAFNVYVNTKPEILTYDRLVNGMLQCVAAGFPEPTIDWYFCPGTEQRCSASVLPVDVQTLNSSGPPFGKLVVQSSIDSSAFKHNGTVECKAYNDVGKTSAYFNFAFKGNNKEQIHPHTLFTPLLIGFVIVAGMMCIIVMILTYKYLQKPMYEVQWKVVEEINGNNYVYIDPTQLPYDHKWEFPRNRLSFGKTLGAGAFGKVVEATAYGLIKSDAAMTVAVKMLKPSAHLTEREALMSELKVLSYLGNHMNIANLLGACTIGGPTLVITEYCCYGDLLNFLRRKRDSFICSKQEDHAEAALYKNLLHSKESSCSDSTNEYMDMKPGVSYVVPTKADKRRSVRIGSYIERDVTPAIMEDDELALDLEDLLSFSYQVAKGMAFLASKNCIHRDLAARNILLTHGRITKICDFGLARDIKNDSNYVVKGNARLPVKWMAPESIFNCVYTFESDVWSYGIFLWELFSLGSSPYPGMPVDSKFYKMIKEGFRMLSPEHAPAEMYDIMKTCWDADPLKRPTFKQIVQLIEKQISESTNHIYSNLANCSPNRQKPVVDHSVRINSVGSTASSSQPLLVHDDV
T12 sequence (Q16513 whole entry): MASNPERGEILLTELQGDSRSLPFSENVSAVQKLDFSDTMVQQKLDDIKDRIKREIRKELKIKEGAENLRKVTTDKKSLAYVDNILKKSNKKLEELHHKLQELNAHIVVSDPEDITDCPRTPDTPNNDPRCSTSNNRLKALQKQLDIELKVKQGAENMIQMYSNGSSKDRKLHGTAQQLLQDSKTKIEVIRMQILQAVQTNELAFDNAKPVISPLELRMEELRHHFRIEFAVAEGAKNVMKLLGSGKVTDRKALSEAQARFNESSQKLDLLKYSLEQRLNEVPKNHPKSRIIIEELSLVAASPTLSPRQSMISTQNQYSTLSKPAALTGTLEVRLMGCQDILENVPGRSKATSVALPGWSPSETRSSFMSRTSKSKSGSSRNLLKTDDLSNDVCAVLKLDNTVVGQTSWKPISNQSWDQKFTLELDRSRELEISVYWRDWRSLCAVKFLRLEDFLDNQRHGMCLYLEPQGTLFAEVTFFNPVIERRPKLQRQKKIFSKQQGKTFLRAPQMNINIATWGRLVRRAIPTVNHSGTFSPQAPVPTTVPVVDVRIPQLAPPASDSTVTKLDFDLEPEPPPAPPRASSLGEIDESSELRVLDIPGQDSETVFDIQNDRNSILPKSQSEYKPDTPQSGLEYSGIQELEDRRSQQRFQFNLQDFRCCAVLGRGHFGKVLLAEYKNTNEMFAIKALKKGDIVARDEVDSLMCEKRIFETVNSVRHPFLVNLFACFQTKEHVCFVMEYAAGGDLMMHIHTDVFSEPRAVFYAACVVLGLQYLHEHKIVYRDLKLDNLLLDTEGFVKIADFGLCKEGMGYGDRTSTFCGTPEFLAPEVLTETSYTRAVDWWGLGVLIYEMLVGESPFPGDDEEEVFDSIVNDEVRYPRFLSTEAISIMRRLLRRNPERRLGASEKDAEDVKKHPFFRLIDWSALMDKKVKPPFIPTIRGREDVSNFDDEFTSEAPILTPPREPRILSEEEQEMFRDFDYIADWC
T7 sequence (P49137 whole entry): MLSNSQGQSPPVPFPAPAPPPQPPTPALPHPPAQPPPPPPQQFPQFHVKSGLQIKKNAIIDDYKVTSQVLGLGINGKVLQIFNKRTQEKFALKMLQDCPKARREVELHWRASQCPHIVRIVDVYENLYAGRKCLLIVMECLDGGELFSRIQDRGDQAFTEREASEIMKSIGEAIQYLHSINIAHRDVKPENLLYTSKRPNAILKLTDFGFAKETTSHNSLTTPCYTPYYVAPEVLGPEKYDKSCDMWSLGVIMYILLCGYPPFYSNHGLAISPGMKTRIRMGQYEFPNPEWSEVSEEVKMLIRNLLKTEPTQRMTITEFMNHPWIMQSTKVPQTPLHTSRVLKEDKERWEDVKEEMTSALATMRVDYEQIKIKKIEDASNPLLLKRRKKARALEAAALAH
T23 sequence (Q8TD19 whole entry): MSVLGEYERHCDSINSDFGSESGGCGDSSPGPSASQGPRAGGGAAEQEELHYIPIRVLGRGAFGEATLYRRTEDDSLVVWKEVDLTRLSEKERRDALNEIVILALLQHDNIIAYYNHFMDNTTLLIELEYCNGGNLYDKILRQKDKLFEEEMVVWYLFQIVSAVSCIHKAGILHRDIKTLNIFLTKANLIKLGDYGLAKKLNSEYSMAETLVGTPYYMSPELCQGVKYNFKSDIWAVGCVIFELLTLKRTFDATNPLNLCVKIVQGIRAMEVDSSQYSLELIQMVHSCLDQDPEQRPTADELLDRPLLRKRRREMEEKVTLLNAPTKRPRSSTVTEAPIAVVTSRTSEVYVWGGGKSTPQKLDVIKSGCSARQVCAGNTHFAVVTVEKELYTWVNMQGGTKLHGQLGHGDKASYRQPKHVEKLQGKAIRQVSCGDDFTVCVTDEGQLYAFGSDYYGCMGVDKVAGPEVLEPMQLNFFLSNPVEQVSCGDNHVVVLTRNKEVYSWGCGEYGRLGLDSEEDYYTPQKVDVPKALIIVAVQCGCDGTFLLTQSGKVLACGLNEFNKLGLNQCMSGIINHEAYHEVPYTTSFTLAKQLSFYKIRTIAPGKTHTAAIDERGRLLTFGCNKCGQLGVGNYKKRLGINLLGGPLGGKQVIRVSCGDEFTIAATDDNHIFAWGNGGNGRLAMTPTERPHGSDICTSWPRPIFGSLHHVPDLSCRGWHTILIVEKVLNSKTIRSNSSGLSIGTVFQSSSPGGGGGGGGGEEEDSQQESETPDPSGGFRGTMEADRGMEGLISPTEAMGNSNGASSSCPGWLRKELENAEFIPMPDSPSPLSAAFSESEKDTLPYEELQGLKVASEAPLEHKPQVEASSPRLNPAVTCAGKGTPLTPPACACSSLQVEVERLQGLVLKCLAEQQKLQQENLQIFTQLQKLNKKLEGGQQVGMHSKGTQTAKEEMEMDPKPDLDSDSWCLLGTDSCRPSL
T20 sequence (Q8TF76 whole entry): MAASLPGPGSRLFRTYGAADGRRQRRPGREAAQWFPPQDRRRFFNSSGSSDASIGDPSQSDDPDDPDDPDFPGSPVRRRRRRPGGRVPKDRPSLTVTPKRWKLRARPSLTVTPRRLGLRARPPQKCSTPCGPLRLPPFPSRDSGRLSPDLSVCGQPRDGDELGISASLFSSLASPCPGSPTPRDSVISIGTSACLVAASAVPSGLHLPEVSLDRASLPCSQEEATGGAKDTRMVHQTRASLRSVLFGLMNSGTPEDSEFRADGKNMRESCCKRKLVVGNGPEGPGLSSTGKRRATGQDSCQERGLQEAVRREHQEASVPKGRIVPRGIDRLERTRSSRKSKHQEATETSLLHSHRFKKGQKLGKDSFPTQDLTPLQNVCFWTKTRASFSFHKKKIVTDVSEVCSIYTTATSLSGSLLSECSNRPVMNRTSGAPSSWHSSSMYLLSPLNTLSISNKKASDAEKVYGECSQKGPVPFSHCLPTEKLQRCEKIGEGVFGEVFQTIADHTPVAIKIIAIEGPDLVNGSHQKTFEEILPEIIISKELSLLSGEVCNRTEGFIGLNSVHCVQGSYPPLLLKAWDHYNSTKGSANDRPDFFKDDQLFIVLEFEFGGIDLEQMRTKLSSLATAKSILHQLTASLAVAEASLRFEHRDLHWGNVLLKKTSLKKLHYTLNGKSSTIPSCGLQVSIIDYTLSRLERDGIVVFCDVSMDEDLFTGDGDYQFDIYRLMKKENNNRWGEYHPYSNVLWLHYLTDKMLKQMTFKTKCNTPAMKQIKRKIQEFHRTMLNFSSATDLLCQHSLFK
T36 sequence (P10721 26-976 V559D/V654A): as the sequence (P10721 26-976 V654A) above, with V534D counted along it

## Clc1cc2cc(c1)-c1cnn3ccc(nc13)NCCOCCO2 [OD36]
LIMK1
  inhibition at 0.1 µM: 16%
MAP3K5
  inhibition at 0.1 µM: 13%
PRKCG
  inhibition at 0.1 µM: 16%
DAPK2
  inhibition at 0.1 µM: 17%
MET_Y1230D
  inhibition at 0.1 µM: -6%
MAP3K7
  inhibition at 0.1 µM: 3%
MAPKAPK2
  inhibition at 0.1 µM: -9%
MERTK
  inhibition at 0.1 µM: 15%
EGFR_G719S
  inhibition at 0.1 µM: 10%
RPS6KA3
  inhibition at 0.1 µM: 11%
PRKACA
  inhibition at 0.1 µM: -3%
PKN2
  inhibition at 0.1 µM: 8%
FGFR3_K650E
  inhibition at 0.1 µM: 8%
AKT1
  inhibition at 0.1 µM: 4%
ABL1_G250E
  inhibition at 0.1 µM: 5%
ADRBK2
  inhibition at 0.1 µM: 0%
PASK
  inhibition at 0.1 µM: 3%
PRKG2
  inhibition at 0.1 µM: 14%
DSTYK
  inhibition at 0.1 µM: 3%
GSG2
  inhibition at 0.1 µM: 50%
ABL1_F317I
  inhibition at 0.1 µM: 8%
NEK4
  inhibition at 0.1 µM: 2%
NEK9
  inhibition at 0.1 µM: 1%
CDK4_cyclinD3
  inhibition at 0.1 µM: -30%
MET
  inhibition at 0.1 µM: 3%
FER
  inhibition at 0.1 µM: 6%
SRPK2
  inhibition at 0.1 µM: -2%
ALK_F1174L
  inhibition at 0.1 µM: 8%
KIT_V654A
  inhibition at 0.1 µM: 5%
GRK7
  inhibition at 0.1 µM: 6%
CAMKK1
  inhibition at 0.1 µM: 20%
TTK
  inhibition at 0.1 µM: 10%
STK24
  inhibition at 0.1 µM: 8%
ALK_L1196M
  inhibition at 0.1 µM: -7%
NEK2
  inhibition at 0.1 µM: 0%
KIT_V559D_V654A
  inhibition at 0.1 µM: -2%
PTK2B
  inhibition at 0.1 µM: -2%
MET_Y1230H
  inhibition at 0.1 µM: -3%
NEK1
  inhibition at 0.1 µM: 14%
STK16
  inhibition at 0.1 µM: 12%
RET_M918T
  inhibition at 0.1 µM: 33%
MET_M1250T
  inhibition at 0.1 µM: 12%

## Cc1cc2cc(c1)-c1cnn3ccc(nc13)NCCNC(=O)CCN(C)C2 [OD52]
LIMK1
  inhibition at 0.1 µM: -5%
MAP3K5
  inhibition at 0.1 µM: -12%
PRKCG
  inhibition at 0.1 µM: 11%
DAPK2
  inhibition at 0.1 µM: -10%
MET_Y1230D
  inhibition at 0.1 µM: -12%
MAP3K7
  inhibition at 0.1 µM: -6%
MAPKAPK2
  inhibition at 0.1 µM: -1%
MERTK
  inhibition at 0.1 µM: -10%
EGFR_G719S
  inhibition at 0.1 µM: -9%
RPS6KA3
  inhibition at 0.1 µM: -12%
PRKACA
  inhibition at 0.1 µM: -7%
PKN2
  inhibition at 0.1 µM: -3%
FGFR3_K650E
  inhibition at 0.1 µM: -7%
AKT1
  inhibition at 0.1 µM: -4%
ABL1_G250E
  inhibition at 0.1 µM: 6%
ADRBK2
  inhibition at 0.1 µM: -3%
PASK
  inhibition at 0.1 µM: 3%
PRKG2
  inhibition at 0.1 µM: -10%
DSTYK
  inhibition at 0.1 µM: -1%
GSG2
  inhibition at 0.1 µM: 20%
ABL1_F317I
  inhibition at 0.1 µM: -3%
NEK4
  inhibition at 0.1 µM: -3%
NEK9
  inhibition at 0.1 µM: -1%
CDK4_cyclinD3
  inhibition at 0.1 µM: -5%
MET
  inhibition at 0.1 µM: -5%
FER
  inhibition at 0.1 µM: -12%
SRPK2
  inhibition at 0.1 µM: -16%
ALK_F1174L
  inhibition at 0.1 µM: -6%
KIT_V654A
  inhibition at 0.1 µM: -9%
GRK7
  inhibition at 0.1 µM: 12%
CAMKK1
  inhibition at 0.1 µM: -8%
TTK
  inhibition at 0.1 µM: -9%
STK24
  inhibition at 0.1 µM: 12%
ALK_L1196M
  inhibition at 0.1 µM: -6%
NEK2
  inhibition at 0.1 µM: 3%
KIT_V559D_V654A
  inhibition at 0.1 µM: -12%
PTK2B
  inhibition at 0.1 µM: 6%
MET_Y1230H
  inhibition at 0.1 µM: -20%
NEK1
  inhibition at 0.1 µM: -4%
STK16
  inhibition at 0.1 µM: 9%
RET_M918T
  inhibition at 0.1 µM: 33%
MET_M1250T
  inhibition at 0.1 µM: -19%
